According to patent US5061695A, “Antitumor substance BE-12406” (Banyu Pharmaceutical Co., Ltd., priority 1989, dated 1991):

Legend:
[1] = system: P388/S tumor cells; assay: In vitro growth inhibition of P388/S tumor cells (Coulter counter); assay type: cell-based; settings: Mus musculus, 72 hours, 37° C., read-out: IC50, concentration causing 50% inhibition of P388/S cell growth
Description: (§1) In vitro activity tests were performed for evaluating the inhibitory activities of the antitumor substances BE-12406A and B against mouse tumor cells. In the in vitro antitumor assay using P388 tumor cells, the antitumor substance BE-12406A or B was first dissolved in dimethyl sulfoxide and the solution was serially diluted with a cell culture medium containing 20% of dimethyl sulfoxide (20% DMSO-RPMI-1640 medium). Then, 2 μl of each dilution was added to 200 μl of a cell culture medium (10% fetal calf serum-RPMI-1640 medium) containing 2.5×10^4 tumor cells and the mixture was incubated under 5% CO2 at 37° C. for 72 hours. The viable cells were then counted with a Coulter counter. The result was compared with the control data. […] The corresponding values for P388/V cells were 0.2 and 7 μM, respectively.
(§2) The P388/S tumor cell line is one of the common mouse leukemia cell lines, and the P388/V line is a strain of P388 leukemia cell which has acquired resistance to the anticancer agent vincristine.

[2] = system: P388/V cells; assay: In vitro growth inhibition of P388/V cells (vincristine-resistant); assay type: cell-based; settings: Mus musculus, 72 hours, 37° C., read-out: IC50, 50% inhibition of P388/V cell growth
Description: as §1, §2

[3] = system: P388/A cells; assay: In vitro growth inhibition of P388/A cells (adriamycin-resistant); assay type: cell-based, mouse; settings: for IC50: Mus musculus, P388/A (adriamycin-resistant), read-out: IC50, 50% inhibitory concentration, P388/A; for inhibition of P388/A cells (in words): adriamycin-resistant
Description: as §1

[4] = system: HeLa cells; assay: In vitro growth inhibition of HeLa cells (Crystal Violet); assay type: cell-based, human; settings: 72 hours, 37° C.; for IC50: Homo sapiens, HeLa, read-out: IC50, 50% inhibitory concentration, HeLa
Description: (§3) Then, the in vitro inhibitory activity of BE-12406A and B was assayed using HeLa cells, which are human cancer cells, and L1210 cells which are mouse leukemia cells.
Thus, antitumor substance BE-12406A or B in a concentration series was added to 200 μl of a cell culture medium (10% fetal calf serum-MEM medium) containing 4×10^3 HeLa cells and the mixture was incubated under 5% CO2 at 37° C. for 72 hours. The surviving adherent cells were fixed with 10% formalin and stained with 0.01% Crystal Violet. Using a 1:1 (v/v) mixture of ethylene glycol and ethanol, the dye was extracted from the stained cells and the absorbance at 590 nm was measured and compared with the control.

[5] = system: L1210 cells; assay: In vitro growth inhibition of L1210 cells (Coulter counter); assay type: cell-based, mouse; settings: 37° C.; for growth inhibition of L1210 cells (in words): 72 hours; for IC50: Mus musculus, L1210, 72 hours, read-out: IC50, 50% inhibitory concentration, L1210
Description: as §3
The growth inhibition assay using L1210 cells was performed as follows. Thus, antitumor substance BE-12406A or B in a concentration series was added to 200 μl of a cell culture medium (10% fetal calf serum-RPMI-1640) containing 4.5×10^3 L1210 cells and the mixture was incubated under 5% CO2 at 37° C. for 72 hours. The surviving suspended cells were counted with a Coulter counter and the result was compared with the control.

[6] = system: human colon cancer cell line DLD-1; assay: Cancer cell growth inhibition, DLD-1 (sulforhodamine B); assay type: cell-based; settings: DLD-1, 72 hours, 37° C.
Description: (§4) For the assessment of the inhibitory activity of BE-12406A, B, X1 and X2 against human cancer cells, in vitro tests were carried out. As the test cells, human colon cancer cell lines DLD-1 and LS180 and human lung cancer cell line PC13 were used. The cell culture medium was 10% fetal calf serum-RPMI medium for DLD-1 and LS180, and 10% fetal calf serum-RPMI-1640 medium for PC13. First, each of BE-12406A, B, X1 and X2 was dissolved in dimethyl sulfoxide and the solution was serially diluted with PBS (phosphate-buffered saline) to prepare test solutions. The cancer cell growth inhibition assay was performed as follows. Thus, 100 μl of a cell culture medium containing 3×10^3 cancer cells was distributed into a 96-well microtiter plate and incubated under 5% CO2 at 37° C. for 24 hours. Then, 11 μl of the above test solutions were added and the incubation was further carried out under 5% CO2 at 37° C. for an additional 72 hours. The cells were then fixed with 50% trichloroacetic acid and stained with 0.4% sulforhodamine B. From the stained cells, the dye was extracted with 10 mM Tris solution and the absorbance at 540 nm was measured and compared with the control.

[7] = system: human colon cancer cell line LS180; assay: Cancer cell growth inhibition, LS180 (sulforhodamine B); assay type: cell-based; settings: LS180, 72 hours, 37° C.; for IC50: Homo sapiens
Description: as §4

[8] = system: human lung cancer cell line PC13; assay: Cancer cell growth inhibition, PC13 (sulforhodamine B); assay type: cell-based; settings: PC-13, PC13, 72 hours, 37° C.
Description: as §4

[9] = system: S-180 ascites tumor; assay: Antitumor effect on transplanted mouse S-180 ascites tumor (survival); assay type: in vivo; settings: i.p.; for MST (mean survival time): days 1, 4, 7, 9 and 13, female ICR mice; for MST (% T/C), (treated MST/control MST) × 100: ≥ 125 = marked antitumor effect
Description: In this assay using mice, 10^6 (lethal dose) S-180 tumor cells pre mouse were intrapetitoneally administered and the 5% DMSO-PBS (phosphate Buffered Saline solution of BE-12406A in a dilution series (1:2, 1:4, 1:8, etc.) was intraperitoneally administered. The results are summarized in Table 3.
^1 Inoculum: 10^6 ascites tumor cells, intraperitoneal
^2 Host: Female ICR mice
^3 Treatment schedule: BE12406A was administered intraperitoneally on
^4 MST: Mean survival time (in days)
^5 % T/C: (treated MST/control MST) × 100
^6 Criteria: When % T/C ≥ 125, the test compound was considere
to produce a marked antitumor effect at the particular concentration.

[10] = Acute toxicity in mice, single intraperitoneal dosing; assay type: in vivo, mouse (ICR; settings: 100 mg/kg, ICR female mice
[11] = Solubility; assay type: physicochemical; settings: for Solubility in organic solvents: dimethyl sulfoxide and other organic solvents
[12] = system: P388 tumor cells; assay: In vitro growth inhibition of P388 tumor cells (overall statement); assay type: cell-based, mouse; settings: 72 hours, 37° C.
Description: as §1

[13] = system: human cancer cells; assay: In vitro growth inhibition of human cancer cells DLD-1, LS180 and PC13 (overall statement); assay type: cell-based; settings: DLD-1, LS180, PC13; 72 hours, 37° C.
Description: as §4

Compound | IC50 [1] [µM] | IC50 [2] [µM] | IC50 [3] [µM] | inhibition of P388/A cells (in words) [3] | growth inhibition of HeLa cells (in words) [4] | IC50 [4] [µM] | growth inhibition of L1210 cells (in words) [5] | IC50 [5] [µM] | IC50 [6] [µM] | IC50 [7] [µM] | inhibition of proliferation of LS180 (in words) [7] | IC50 [8] [µM] | Solubility in organic solvents ([11]; tetrahydrofuran) | Solubility in water [11] | growth inhibition of P388 tumor cells (in words) [12] | growth inhibition of human cancer cells (in words) [13] | Solubility in organic solvents ([11]; dimethylformamide) | further results
COc1cc(C)cc2c(=O)oc3c4cccc(O)c4c(OC4OC(C)C(O)C(O)C4O)cc3c12 (centres unmarked) [BE-12406A] | 0.8 | 0.2 | 0.9 | inhibited | inhibited growth | 11 | inhibited growth | 9.6 | 18.4 | 12 | markedly inhibited proliferation | 20.7 | readily soluble | Sparingly soluble | markedly inhibit the growth | inhibit the growth | – | MST (mean survival time) ([9]; 2.5 mg/kg/injection): 12.0 days; MST (% T/C), (treated MST/control MST) × 100 ([9]; 2.5 mg/kg/injection): 120 % T/C; MST (mean survival time) ([9]; 5 mg/kg/injection): 13.0 days; MST (% T/C), (treated MST/control MST) × 100 ([9]; 5 mg/kg/injection): 130 % T/C; MST (mean survival time) ([9]; 10 mg/kg/injection): 15.0 days; MST (% T/C), (treated MST/control MST) × 100 ([9]; 10 mg/kg/injection): 150 % T/C; MST (mean survival time) ([9]; 20 mg/kg/injection): > 30.0 days; MST (% T/C), (treated MST/control MST) × 100 ([9]; 20 mg/kg/injection): > 300 % T/C; MST (mean survival time) ([9]; 40 mg/kg/injection): > 30.0 days; MST (% T/C), (treated MST/control MST) × 100 ([9]; 40 mg/kg/injection): > 300 % T/C; antitumor effect on transplanted S-180 tumor cells (in words) ([9]; mice): showed an antitumor effect; acute toxicity, death on day 5 [10]: no death was found
Cc1cc(O)c2c(c1)c(=O)oc1c3cccc(O)c3c(OC3OC(C)C(O)C(O)C3O)cc12 (centres unmarked) [BE-12406B] | 7 | 7 | 11 | inhibited | inhibited growth | 20 | inhibited growth | 60 | > 220 | 88.1 | – | 161 | readily soluble | Sparingly soluble | markedly inhibit the growth | inhibit the growth | – | –
COc1cc(C)cc2c(=O)oc3c4cccc(OC5OC(C)C(O)C(O)C5O)c4c(O)cc3c12 (centres unmarked) [BE-12406X1] | – | – | – | – | – | – | – | – | 91.9 | 36.3 | markedly inhibited proliferation | 115 | – | Sparingly soluble | – | inhibit the growth | soluble | –
COc1cc(C)cc2c(=O)oc3c4cccc(O)c4c(O)cc3c12 [BE-12406X2] | – | – | – | – | – | – | – | – | > 311 | 311 | – | > 311 | – | Sparingly soluble | – | inhibit the growth | soluble | –
